Data published in patent US11932637B2, “Chromane amidine monobactam compounds for the treatment of bacterial infections” (priority 2021, dated 2024).

Columns and labels:
Type in all cases: cell-based
[1] = test system: Pseudomonas aeruginosa expressing AmpC (CL5701); experiment: Antibiotic activity: growth inhibitory concentration (OD600), P. aeruginosa CL5701; conditions: concentration inhibiting 95% of bacterial growth, with BLi Relebactam 4 μg/mL, 22 hours
Method: (§1) Biological Assays Antibiotic Activity: Determination of Growth Inhibitory Concentration The concentrations of compounds required to inhibit the growth of various strains of bacteria were determined in an assay that assessed bacterial growth by measuring optical density at 600 nm (OD600). The bacterial strains tested included the clinical strains Escherichia coli expressing NDM-1 (CLB30016), Klebsiella pneumoniae expressing KPC-1 (CL6569), Acinetobacter baumannii expressing TEM-1, AmpC, and Oxa-24/40 (CL6188) and Pseudomonas aeruginosa expressing AmpC (CL5701). All compounds were tested in the presence of a β lactamase inhibitor (BLi, Relebactam) in 384-well microplates.
(§2) The clinical strains were stored as frozen single use stocks, thawed and diluted into 1.1× cation-adjusted Mueller-Hinton II broth to achieve approximately 2×10^5 CFU/mL. Test compounds were dissolved in DMSO and diluted 1:50 in the assay, resulting in a final concentration range of 100 μM to 0.098 μM. On the day of the assay, 1 μL of test compound was added to the plate followed by 4 μL of 50 μg/mL BLi in MOPS buffer and 45 μL of diluted bacteria. Plates were centrifuged at 1000 rpm for 30 seconds, shaken at approximately 800 rpm for 1 minute, and incubated at 35 t 2° C. for 22 hours. The concentration of BLi used in the assay was 4 μg/mL. At the end of the incubation, absorbance at 600 nm was determined using a spectrophotometer. Inhibition was quantitated by identifying the lowest concentration of test compound that was required to inhibit 95% of the growth of the bacteria.

[2] = test system: Escherichia coli expressing NDM-1 (CLB30016); experiment: Antibiotic activity: growth inhibitory concentration (OD600), E. coli CLB30016; conditions: concentration inhibiting 95% of bacterial growth, with BLi Relebactam 4 μg/mL, 22 hours
Method: as §1, §2

[3] = test system: Acinetobacter baumannii expressing TEM-1, AmpC, and Oxa-24/40 (CL6188); conditions: concentration inhibiting 95% of bacterial growth; with BLi Relebactam 4 μg/mL; 22 hours; OD600
Method: as §1, §2

| Structure (SMILES) | PA_CL5701 MITC95 [1] | EC_CLB30016 MITC95 [2] | AB_CL6188 MITC95 [3] |
| --- | --- | --- | --- |
| CC1(C)[C@H](NC(=O)/C(=N\O[C@](C)(C(=O)O)[C@H]2CCc3cc(C(=N)N[C@H]4C[C@]5(CCNC5)C4)ccc3O2)c2csc(N)n2)C(=O)N1OS(=O)(=O)O [Compound 22, (S)-2-((R)-6-(N-((2r,4S)-6-azaspiro[3.4]octan-2-yl)carbamimidoyl)chroman-2-yl)-2-((((Z)-1-(2-aminothiazol-4-yl)-2-(((S)-2,2-dimethyl-4-oxo-1-(sulfooxy)azetidin-3-yl)amino)-2-oxoethylidene)amino)oxy)propanoic acid] | 1.563 µM | – | – |
| COCc1c(C(=N)N[C@H]2C[C@@H](N)C2)ccc2c1CC[C@H]([C@](C)(O/N=C(\C(=O)N[C@@H]1C(=O)N(OS(=O)(=O)O)C1(C)C)c1csc(N)n1)C(=O)O)O2 [Compound 124, (S)-2-((R)-6-(N-((1s,3S)-3-aminocyclobutyl)carbamimidoyl)-5-(methoxymethyl)chroman-2-yl)-2-((((Z)-1-(2-aminothiazol-4-yl)-2-(((S)-2,2-dimethyl-4-oxo-1-(sulfooxy)azetidin-3-yl)amino)-2-oxoethylidene)amino)oxy)propanoic acid] | 3.125 µM | 50 µM | – |
| CC1(C)[C@H](NC(=O)/C(=N\O[C@](C)(C(=O)O)[C@H]2CCc3cc(C(=N)N[C@H]4C[C@@H](N)C4)ccc3O2)c2csc(N)n2)C(=O)N1OS(=O)(=O)O [Compound 7, (S)-2-((R)-6-(N-((1 s,3S)-3-aminocyclobutyl)carbamimidoyl)chroman-2-yl)-2-((((Z)-1-(2-aminothiazol-4-yl)-2-(((S)-2,2-dimethyl-4-oxo-1-(sulfooxy)azetidin-3-yl)amino)-2-oxoethylidene)amino)oxy)propanoic acid] | 1.563 µM | – | – |
| COC[C@]1(NC(=N)c2ccc3c(c2)CC[C@H]([C@](C)(O/N=C(\C(=O)N[C@@H]2C(=O)N(OS(=O)(=O)O)C2(C)C)c2csc(N)n2)C(=O)O)O3)CC[C@H](N)CC1 [Compound 127, (S)-2-((R)-6-(N-((1r,4R)-4-amino-1-(methoxymethyl)cyclohexyl)carbamimidoyl)chroman-2-yl)-2-((((Z)-1-(2-aminothiazol-4-yl)-2-(((S)-2,2-dimethyl-4-oxo-1-(sulfooxy)azetidin-3-yl)amino)-2-oxoethylidene)amino)oxy)propanoic acid] | 3.125 µM | – | – |
| CC1(C)[C@H](NC(=O)/C(=N\O[C@](C)(C(=O)O)[C@H]2CCc3cc(C(=N)N[C@H]4C[C@](N)(CC(O)CO)C4)ccc3O2)c2csc(N)n2)C(=O)N1OS(=O)(=O)O (stereo partly drawn) [Compound 96, (S)-2-((R)-6-(N-((1R,3S)-3-amino-3-((S)-2,3-dihydroxypropyl)cyclobutyl)-carbamimidoyl)chroman-2-yl)-2-((((Z)-1-(2-aminothiazol-4-yl)-2-(((S)-2,2-dimethyl-4-oxo-1-(sulfooxy)azetidin-3-yl)amino)-2-oxoethylidene)amino)oxy)propanoic acid] | 1.563 µM | – | 6.25 µM |
| COC[C@]1(NC(=N)c2ccc3c(c2)CC[C@H]([C@](C)(O/N=C(\C(=O)N[C@@H]2C(=O)N(OS(=O)(=O)O)C2(C)C)c2csc(N)n2)C(=O)O)O3)CC[C@@H](N)CC1 [Compound 126, (S)-2-((R)-6-(N-((1s,4S)-4-amino-1-(methoxymethyl)cyclohexyl)carbamimidoyl)chroman-2-yl)-2-((((Z)-1-(2-aminothiazol-4-yl)-2-(((S)-2,2-dimethyl-4-oxo-1-(sulfooxy)azetidin-3-yl)amino)-2-oxoethylidene)amino)oxy)propanoic acid] | 6.25 µM | 25 µM | – |
| CC1(C)[C@H](NC(=O)/C(=N\O[C@](C)(C(=O)O)[C@H]2CCc3cc(C(=N)NC4CC(N)(C[C@H](O)CO)C4)ccc3O2)c2csc(N)n2)C(=O)N1OS(=O)(=O)O (stereo partly drawn) [Compound 94, (S)-2-((R)-6-(N-((1S,3R)-3-amino-3-((S)-2,3-dihydroxypropyl)cyclobutyl)carbamimidoyl)chroman-2-yl)-2-((((Z)-1-(2-aminothiazol-4-yl)-2-(((S)-2,2-dimethyl-4-oxo-1-(sulfooxy)azetidin-3-yl)amino)-2-oxoethylidene)amino)oxy)propanoic acid] | 1.563 µM | – | 6.25 µM |
| CC1(C)[C@H](NC(=O)/C(=N\O[C@](C)(C(=O)O)[C@H]2CCc3cc(C(=N)N[C@H]4C[C@@](N)(C[C@@H](O)CO)C4)ccc3O2)c2csc(N)n2)C(=O)N1OS(=O)(=O)O [Compound 95, (S)-2-((R)-6-(N-((1R,3R)-3-amino-3-((R)-2,3-dihydroxypropyl)cyclobutyl)carbamimidoyl)chroman-2-yl)-2-((((Z)-1-(2-aminothiazol-4-yl)-2-(((S)-2,2-dimethyl-4-oxo-1-(sulfooxy)azetidin-3-yl)amino)-2-oxoethylidene)amino)oxy)propanoic acid] | 1.563 µM | 6.25 µM | – |
| CC1(C)[C@H](NC(=O)/C(=N\O[C@](C)(C(=O)O)[C@H]2CCc3cc(C(=N)N[C@H]4C[C@@]5(CCNC5)C4)ccc3O2)c2csc(N)n2)C(=O)N1OS(=O)(=O)O [Compound 23, (S)-2-((R)-6-(N-((2s,4R)-6-azaspiro[3.4]octan-2-yl)carbamimidoyl)chroman-2-yl)-2-((((Z)-1-(2-aminothiazol-4-yl)-2-(((S)-2,2-dimethyl-4-oxo-1-(sulfooxy)azetidin-3-yl)amino)-2-oxoethylidene)amino)oxy)propanoic acid] | 3.125 µM | 6.25 µM | 6.25 µM |
